Data published in article PMC12117711, “The contribution of cyclic imide stereoisomers on cereblon-dependent activity†” (Chemical Science, 2025).

How the values were obtained:
[1] = target: T1, His6-CRBN/DDB1 and GST-BRD4(BD2) (Homo sapiens, UniProt O60885+Q96SW2); assay: AlphaScreen ternary complex formation, His6-CRBN/DDB1 and GST-BRD4(BD2); type: binding
T1 construct: His6-CRBN/DDB1 complex and GST-BRD4 BD2 domain; purchased Epicypher (GST-BRD4(BD2)); Bristol Myers Squibb gift (His6-CRBN/DDB1) 15-0013
Procedure: AlphaScreen was performed according to the previously reported method.7 Briefly, for AlphaScreen of His6-CRBN/DDB1, GST-IKZF1 and (S)-, (R)- or rac-lenalidomide-d3, a solution of 100 nM His6-CRBN/DDB1 and 200 nM GST-IKZF1 in 1x AlphaScreen buffer (5 µL) and a solution of the indicated compound in 1x AlphaScreen buffer (5 µL) were added to a each well of a 384-well Optiplate and incubated at 24 °C for 1 h. To each well, a solution of 5 µL of 60 µg/mL AlphaScreen Glutathione Donor beads, 60 µg/mL AlphaLISA Nickel Chelate Donor beads in 1× AlphaScreen buffer was added to each well and incubated at 24 °C for 1 h in the dark and the plate was analyzed. For AlphaScreen of His6-CRBN/DDB1, GST-BRD4(BD2) and bivalent degraders, a solution of 750 nM His-CRBN/DDB1 and 375 nM GST-BRD4(BD2) in 1x AlphaScreen buffer (5 µL) and a solution of the indicated compound in 1x AlphaScreen buffer (5 µL) were added to a each well of a 384-well Optiplate and incubated at 24 °C for 1 h. To each well, a solution of 5 µL of 60 µg/mL AlphaScreen Glutathione Donor beads, 60 µg/mL AlphaLISA Nickel Chelate Donor beads in 1× AlphaScreen buffer was added to each well and incubated at 24 °C for 1 h in the dark and the plate was analyzed. […]
heated at 95 °C for 5 min. 10 µL of the immunoprecipitated sample was load on a 12% Tris-glycine gel and probe-labeling was visualized by fluorescence signal. Separately, 10 µL of the immunoprecipitated sample and the “input” sample were load on a 12% Tris-glycine gel and analyzed by Western blotting. […]
Parental cell lines were stably infected with a unique 24-nucleotide DNA barcode via lentiviral transduction and blasticidin selection. […] Passing barcoded lines were then pooled (20-25 cell lines per pool) based on doubling time and frozen in assay-ready vials.
Test compounds were added to 384-well plates and run at 8 pt. dose with 3-fold dilutions, the highest concentration of 25 µM in triplicate. These assay ready plates were then seeded with […]

MOLM13 cells = assay: Global quantitative proteomics of protein levels; type: cell-based; conditions: MOLM13, 100 nM, 4 h
Procedure: Global Quantitative Proteomics Sample Preparation and Mass Spectrometry Acquisition Global Quantitative Proteomics was performed according to the previously reported method.7 Briefly, 1.0×10^6 MOLM13 cells were seeded in 12-well plates and small molecules of interest were added, and cells were incubated at 37 °C, 5% CO2 for 4 hours. Cells were collected […]
15 sec in total, 11% amplitude) in lysis buffer (5% SDS in 50 mM triethylammonium bicarbonate (TEAB), pH 7.55), and cleared by centrifugation (21,000 × g, 4 °C, 10 min). After protein quantification by BCA protein assay, the lysates were diluted to 1.5 mg/mL with the lysis buffer. The diluted lysates (60 μL) were reduced by addition of dithiothreitol (20 mM) at 24 °C for 30 min then alkylated by addition of iodoacetamide (40 mM) and incubation in the dark at 24 °C for 30 min.

His6-CRBN/DDB1 = His6-CRBN/DDB1 (Homo sapiens, UniProt Q96SW2); assay: TR-FRET ligand displacement assay (Thal-FITC tracer) with His6-CRBN/DDB1
[2] = target: T2, thalidomide-binding domain of CRBN (CULT) (Homo sapiens, UniProt Q96SW2); assay: Photoaffinity labeling binding site mapping with i-pLen probes by LC-MS/MS; conditions: equimolar mixture of i-pLen probes, photolysis after 30 min at 24 °C
T2 construct: made in house
T2 sequence (Q96SW2 318-426 limits assumed): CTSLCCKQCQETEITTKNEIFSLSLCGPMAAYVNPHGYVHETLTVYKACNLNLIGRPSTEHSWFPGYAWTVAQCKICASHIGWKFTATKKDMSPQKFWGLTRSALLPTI
Procedure: (v21.1.1) and Adobe Illustrator (v24.1).
MM.1S, MOLM13, Jurkat, and BxPC3 […]
μg/mL), and 10% (v/v) FBS.
Western Blotting Procedures […]
lysates and the concentration was adjusted using lysis buffer. 5× SDS-PAGE loading buffer […]
Protein samples (8–15 μL per lane) were […]
precast gels for medium molecular weight proteins. Gels were transferred to membranes using […]
for high molecular weight proteins. Membranes were stained with Ponceau S solution to visualize transfer and protein loading.
Degradation assay by flow cytometry […]
resuspension in DMEM +/– without phenol red. For IKZF1 degradation assay, propidium […]
equipped with a high throughput sampler. […]
using the BD FACSDiva software v9.1. For each experimental condition, the arithmetic mean […]
comparing compound treatment to DMSO control.
Structural proteomics mass spectrometry sample preparation […]
addition of a pre-mixed cocktail (final concentrations: 100 μM cleavable biotin picolyl-azide probe, 250 μM THPTA, 250 μM CuSO4, 2.5 mM freshly dissolved sodium ascorbate) and incubated for 1.5 h at 25 °C with inversion. After excess reagent was removed by acetone precipitation, the protein pellet was resuspended in 100 mM TEAB (50 μL, pH=8.5) and 100 mM DTT/PBS (1.5 μL, final concentration 3 mM) was added before incubating for 30 min at 25 °C with inversion. […]
The raw data were analyzed using Proteome Discoverer 2.4.1.15. […]

[3] = Protein CRBN, from IC50 with Correction Factor 1.43

[2H]C1([2H])CC([2H])(N2Cc3cc(NC(=O)CCCCCCCCNC(=O)C[C@@H]4N=C(c5ccc(Cl)cc5)c5c(sc(C)c5C)-n5c(C)nnc54)ccc3C2=O)C(=O)NC1=O (mixture of isomers) [JQ1-rac-Len-d3]
ternary complex formation between His6-CRBN/DDB1 and GST-BRD4(BD2) [1]: much less than JQ1-(S)-Len-d3 | FC [fold change abundances (rac/DMSO)] (MOLM13 cells; protein AHCY): 0.9686 | logFC (rac vs DMSO) (MOLM13 cells; protein AHCY): 0.2393 | FC [fold change abundances (rac/DMSO)] (MOLM13 cells; protein GNB4): -1.362 | logFC (rac vs DMSO) (MOLM13 cells; protein GNB4): -0.6098 | FC [fold change abundances (rac/DMSO)] (MOLM13 cells; protein NUP88): -1.247 | logFC (rac vs DMSO) (MOLM13 cells; protein NUP88): -0.5083 | FC [fold change abundances (rac/DMSO)] (MOLM13 cells; protein SATB2): -1.143 | logFC (rac vs DMSO) (MOLM13 cells; protein SATB2): -0.4122 | FC [fold change abundances (rac/DMSO)] (MOLM13 cells; protein TUBB4B): 1.098 | logFC (rac vs DMSO) (MOLM13 cells; protein TUBB4B): 0.3694 | Kd (His6-CRBN/DDB1; KD, competitive TR-FRET, His6-CRBN/DDB1): < 2 nM

C#CCCC1(CC(=O)Nc2ccc3c(c2)C[15N]([C@@H]2CCC(=O)NC2=O)C3=O)N=N1 [(R)-i-pLen]
CRBN residue labeled by the probe [2]: Tyr355

C#CCCC1(CC(=O)Nc2ccc3c(c2)CN([C@H]2CCC(=O)[15NH]C2=O)C3=O)N=N1 [(S)-i-pLen]
CRBN residue labeled by the probe [2]: His353

Cc1sc2c(c1C)C(c1ccc(Cl)cc1)=N[C@@H](CC(=O)NCCCCCCCCC(=O)N[C@@H](Cc1ccccc1)C(=O)N[C@@H]1CCC(=O)NC1=O)c1nnc(C)n1-2 [JQ1-FepicQ]
ternary complex formation between His6-CRBN/DDB1 and GST-BRD4(BD2) [1]: minimally promoted the ternary complex | pIC50 (M) (His6-CRBN/DDB1; Protein CRBN, Thalidomide-FITC tracer 50 nM): 6.08 M | IC50 (His6-CRBN/DDB1; Protein CRBN, Thalidomide-FITC tracer 50 nM, protein […]): 840 nM | Kd (His6-CRBN/DDB1; [3]): 589 nM | pKD (M) (His6-CRBN/DDB1; [3]): 6.23 M
